Assay results: the NIST ThermoML archive (doi:10.1016/j.jct.2010.04.013)

Assay: mn = molality of the nth substance listed, in mol/kg
Conditions: 101 kPa, Liquid; for mass density: Vibrating tube method; for speed of sound: Pulse-echo method

O=S(=O)([O-])C(F)(F)F.O=S(=O)([O-])C(F)(F)F.[Be+2] [beryllium 1,1,1-trifluoromethanesulfonate] + C[S+](C)[O-]
Conditions | mass density, 293.15 K [kg/m3] | mass density, 298.15 K [kg/m3] | mass density, 303.15 K [kg/m3] | mass density, 313.15 K [kg/m3] | mass density, 323.15 K [kg/m3] | mass density, 333.15 K [kg/m3] | speed of sound, 298.15 K [m/s]
m1 = 0.01855 | 1103.22 | 1098.21 | 1093.19 | 1083.18 | 1073.16 | 1063.14 | –
m1 = 0.0259 | 1104.42 | 1099.41 | 1094.4 | 1084.39 | 1074.38 | 1064.37 | 1484.1
m1 = 0.03349 | 1105.65 | 1100.64 | 1095.64 | 1085.64 | 1075.64 | 1065.64 | 1484.1
m1 = 0.0433 | 1107.25 | 1102.25 | 1097.25 | 1087.27 | 1077.27 | 1067.29 | 1484.1
m1 = 0.0531 | 1108.84 | 1103.84 | 1098.85 | 1088.88 | 1078.9 | 1068.92 | 1484.1
m1 = 0.06815 | 1111.3 | 1106.31 | 1101.33 | 1091.37 | 1081.41 | 1071.46 | 1484.1
m1 = 0.08651 | 1114.3 | 1109.32 | 1104.35 | 1094.41 | 1084.48 | 1074.55 | 1484.1
m1 = 0.1051 | 1117.36 | 1112.4 | 1107.44 | 1097.52 | 1087.61 | 1077.69 | 1484.1
m1 = 0.1237 | 1120.43 | 1115.48 | 1110.52 | 1100.63 | 1090.75 | 1080.86 | 1484.1
m1 = 0.1446 | 1123.89 | 1118.95 | 1114.01 | 1104.14 | 1094.27 | 1084.41 | 1484.1
m1 = 0.1621 | 1126.82 | 1121.88 | 1116.95 | 1107.09 | 1097.24 | 1087.39 | 1484.1

[Ca+2].[O-][Cl+3]([O-])([O-])[O-].[O-][Cl+3]([O-])([O-])[O-] [calcium diperchlorate] + CO
Conditions | mass density, 283.15 K [kg/m3] | mass density, 288.15 K [kg/m3] | mass density, 293.15 K [kg/m3] | mass density, 298.15 K [kg/m3] | mass density, 303.15 K [kg/m3] | mass density, 308.15 K [kg/m3] | mass density, 313.15 K [kg/m3] | speed of sound, 298.15 K [m/s]
m1 = 0.04342 | 808.441 | 803.768 | 799.077 | 794.369 | 789.647 | 784.898 | 780.124 | 1107.2
m1 = 0.05807 | 811.094 | 806.419 | 801.722 | 797.014 | 792.292 | 787.544 | 782.768 | –
m1 = 0.07009 | 813.264 | 808.591 | 803.899 | 799.189 | 794.463 | 789.714 | 784.937 | 1110.9
m1 = 0.08408 | 815.804 | 811.129 | 806.432 | 801.724 | 796.994 | 792.241 | 787.454 | 1112.6
m1 = 0.09795 | 818.319 | 813.643 | 808.941 | 804.234 | 799.508 | 794.756 | 789.975 | 1114.4
m1 = 0.1113 | 820.755 | 816.078 | 811.379 | 806.668 | 801.938 | 797.181 | 792.393 | 1116.1
m1 = 0.1396 | 825.906 | 821.224 | 816.525 | 811.81 | 807.078 | 802.323 | 797.541 | 1119.6
m1 = 0.1663 | 830.829 | 826.145 | 821.443 | 816.722 | 811.986 | 807.224 | 802.43 | 1123
m1 = 0.1921 | 835.646 | 830.963 | 826.254 | 821.535 | 816.796 | 812.035 | 807.248 | 1126.7
m1 = 0.2177 | 840.443 | 835.754 | 831.044 | 826.321 | 821.577 | 816.812 | 812.023 | 1129.5
m1 = 0.2427 | 845.09 | 840.401 | 835.687 | 830.964 | 826.212 | 821.445 | 816.651 | 1132.9
m1 = 0.269 | 850.052 | 845.358 | 840.641 | 835.911 | 831.162 | 826.391 | 821.596 | 1136.3
